Test results taken from ChEMBL document CHEMBL4765321, “Discovery of new thieno[3,2-d]pyrimidine derivatives targeting EGFR NSCLCs by the conformation constrained strategy” (Eur J Med Chem, 2020).
Calls of active or inactive are those of the source. No cut-off for these calls is given here.

Tests used:
[1] = tested on: L02; assay: Cytotoxicity against human L0-2 cells assessed as reduction in cell viability measured after 72 hrs by MTT assay; format: ADME, cell-based; conditions: L02, 72 h
[2] = tested on: Epidermal growth factor receptor (Homo sapiens), P00533 [L858R,T790M]; assay: Inhibition of EGFR L858R/T790M double mutant in human H1975 cells assessed as inhibition of EGF-induced ERK phosphorylation at 3 uM incubated for 2 hrs followed by EGF stimulation for 10 mins by western blot analysis; format: cell-based; conditions: NCI-H1975, time 130.0 min
[3] = organism: Homo sapiens; assay: Selectivity index, ratio of IC50 for N-terminal GST-fused human wild type EGFR cytoplasmic domain (669 to 1210 residues) expressed in baculovirus expression system to IC50 for N-terminal GST-fused human EGFR L858R/T790M double mutant cytoplasmic domain (669 to 1210 residues) expressed in baculovirus expression system
[4] = tested on: PC-9; assay: Antiproliferative activity against human PC9 cells harboring EGFRdel19 mutant assessed as reduction in cell viability measured after 72 hrs by MTT assay; format: functional, cell-based; conditions: PC-9, 72 h
[5] = tested on: Epidermal growth factor receptor (Homo sapiens), P00533 [L858R,T790M]; assay: Inhibition of EGFR L858R/T790M double mutant in human H1975 cells assessed as inhibition of EGF-induced ERK phosphorylation incubated for 2 hrs followed by EGF stimulation for 10 mins by western blot analysis; format: cell-based; conditions: NCI-H1975, dose 1-10 µM, time 130.0 min
[6] = target: T1, Epidermal growth factor receptor (Homo sapiens, UniProt P00533); assay: Binding affinity to wild type EGFR in human A549 cells assessed as increase in protein signal at 50 uM incubated for 4 hrs followed by heating from 40 to 64 degC for 5 mins by CETSA based western blot analysis; format: cell-based; conditions: a549, 4.083 h, time 245 min
[7] = target: T1, Epidermal growth factor receptor; assay: Inhibition of EGFR phosphorylation in human A549 cells at 1 to 10 uM incubated for 2 hrs followed by EGF stimulation for 10 mins by western blot analysis; format: cell-based; conditions: a549, 2.167 h, dose 1-10 µM, time 130 min
[8] = tested on: Epidermal growth factor receptor (Homo sapiens), P00533 [L858R,T790M]; assay: Inhibition of EGF-induced phosphorylation of EGFR L858R/T790M double mutant in human H1975 cells at 10 uM incubated for 2 hrs followed by EGF stimulation for 10 mins by western blot analysis; format: cell-based; conditions: NCI-H1975, time 130.0 min
[9] = tested on: NCI-H1975; assay: cells; format: functional, cell-based; conditions: Homo sapiens, NCI-H1975, 72 h
[10] = target: Epidermal growth factor receptor (Homo sapiens, UniProt P00533, L858R/T790M); assay: Inhibition of N-terminal GST-fused human EGFR L858R/T790M double mutant cytoplasmic domain (669 to 1210 residues) expressed in baculovirus expression system using 5-FAM-EEPLYWSFPAKKK-CONH2 as substrate incubated for 20 mins by Mobility shift assay
[11] = tested on: NCI-H1975; assay: Inhibition of colony formation in human H1975 cells measured after 10 days by crystal violet staining based ELISA; format: functional, cell-based; conditions: dose 0.31-2.5 µM, time 10.0 day
[12] = tested on: A549; assay: Inhibition of cell migration in human A549 cells at 5 uM incubated for 48 hrs by scratch wound healing assay; format: cell-based; conditions: a549, 48 h
[13] = target: T1, Epidermal growth factor receptor; assay: Inhibition of EGFR in human A549 cells assessed as inhibition of ERK phosphorylation at 1 to 10 uM incubated for 2 hrs followed by EGF stimulation for 10 mins by western blot analysis; format: cell-based; conditions: a549, 2.167 h, dose 1-10 µM, time 130 min
[14] = tested on: Epidermal growth factor receptor (Homo sapiens), P00533 [L858R,T790M]; assay: Inhibition of EGF-induced phosphorylation of EGFR L858R/T790M double mutant in human H1975 cells incubated for 2 hrs followed by EGF stimulation for 10 mins by western blot analysis; format: cell-based; conditions: NCI-H1975, dose 1-10 µM, time 130.0 min
[15] = target: T1, Epidermal growth factor receptor; assay: Inhibition of N-terminal GST-fused human wild type EGFR cytoplasmic domain (669 to 1210 residues) expressed in baculovirus expression system using 5-FAM-EEPLYWSFPAKKK-CONH2 as substrate incubated for 20 mins by Mobility shift assay
[16] = tested on: Epidermal growth factor receptor (Homo sapiens), P00533 [L858R,T790M]; assay: Inhibition of EGF-induced phosphorylation of EGFR L858R/T790M double mutant in human H1975 cells at 3 uM incubated for 2 hrs followed by EGF stimulation for 10 mins by western blot analysis; format: cell-based; conditions: NCI-H1975, time 130.0 min
[17] = tested on: Epidermal growth factor receptor (Homo sapiens), P00533 [L858R,T790M]; assay: Inhibition of EGFR L858R/T790M double mutant in human H1975 cells assessed as inhibition of EGF-induced ERK phosphorylation at 1 uM incubated for 2 hrs followed by EGF stimulation for 10 mins by western blot analysis; format: cell-based; conditions: NCI-H1975, time 130.0 min
[18] = tested on: Epidermal growth factor receptor (Homo sapiens), P00533 [L858R,T790M]; assay: Inhibition of N-terminal GST-fused human EGFR L858R/T790M double mutant cytoplasmic domain (669 to 1210 residues) expressed in baculovirus expression system using 5-FAM-EEPLYWSFPAKKK-CONH2 as substrate at 1 uM incubated for 20 mins by Mobility shift assay
[19] = tested on: Epidermal growth factor receptor (Homo sapiens), P00533 [L858R,T790M]; assay: Binding affinity to EGFR L858R/T790M double mutant in human H1975 cells assessed as increase in protein signal at 50 uM incubated for 4 hrs followed by heating from 40 to 64 degC for 5 mins by CETSA based western blot analysis; format: cell-based; conditions: NCI-H1975, time 245.0 min
[20] = tested on: A549; assay: Antiproliferative activity against human A549 cells harboring wild type EGFR assessed as reduction in cell viability measured after 72 hrs by MTT assay; format: cell-based; conditions: A549, 72 h
[21] = tested on: Epidermal growth factor receptor (Homo sapiens), P00533 [L858R,T790M]; assay: Inhibition of EGF-induced phosphorylation of EGFR L858R/T790M double mutant in human H1975 cells at 1 uM incubated for 2 hrs followed by EGF stimulation for 10 mins by western blot analysis; format: cell-based; conditions: NCI-H1975, time 130.0 min
[22] = tested on: NCI-H1975; assay: Inhibition of cell migration in human H1975 cells at 0.5 to 5 uM incubated for 48 hrs by scratch wound healing assay; format: functional, cell-based; conditions: dose 0.5-5 µM
[23] = tested on: Epidermal growth factor receptor (Homo sapiens), P00533 [L858R,T790M]; assay: Inhibition of EGFR L858R/T790M double mutant in human H1975 cells assessed as inhibition of EGF-induced ERK phosphorylation at 10 uM incubated for 2 hrs followed by EGF stimulation for 10 mins by western blot analysis; format: cell-based; conditions: NCI-H1975, time 130.0 min
[24] = tested on: A549; assay: Inhibition of colony formation in human A549 cells at 0.31 to 2.5 uM measured after 10 days by crystal violet staining based ELISA; format: cell-based; conditions: a549, 240 h, dose 0.31-2.5 µM, time 10 day

SMILES	IC50 [1]	Ratio IC50 [3]	IC50 [4]	IC50 [9]	IC50 [10]	IC50 [15]	inhibition [18]	IC50 [20]	also measured
CN(C)CCNc1ccc(Nc2nc(Oc3ccc4ccc(=O)[nH]c4c3)c3sccc3n2)cc1F	3.2 µM	61	16 µM	10.8 µM	0.23 µM	14 µM	81%	2.92 µM	inhibition [2]: 53%; inhibition [5]: Dose-dependent effect; Activity [6]: Not Active; inhibition (INH) [7]: Not Active; inhibition [8]: 89%; inhibition [11]: Dose-dependent effect; Activity [12]: Non-Toxic; inhibition (INH) [13]: Not Active; inhibition [14]: Dose-dependent effect; inhibition [16]: 43%; inhibition [17]: 5%; Activity [19]: Active; inhibition [21]: 34%; inhibition [22]: Active; inhibition [23]: 66%; Activity [24]: Toxic
CCN1CCN(c2nc(Oc3ccc4ccc(=O)[nH]c4c3)c3sccc3n2)CC1	> 20 µM	–	–	–	> 1 µM	> 10 µM	inactive	–	–
O=c1ccc2ccc(Oc3nc(Nc4ccc(N5CCOCC5)c(F)c4)nc4ccsc34)cc2[nH]1	–	–	–	–	> 1 µM	> 10 µM	39%	–	–
CCN1CCN(Cc2ccc(Nc3nc(Oc4ccc5ccc(=O)[nH]c5c4)c4sccc4n3)cc2)CC1	5.23 µM	> 42	17.5 µM	10.1 µM	0.24 µM	> 10 µM	81%	5.34 µM	–
O=c1ccc2ccc(Oc3nc(Nc4ccc(N5CCOCC5)cc4)nc4ccsc34)cc2[nH]1	12.5 µM	–	–	–	–	> 10 µM	56%	–	–
CCN1CCN(c2ccc(Nc3nc(Oc4ccc5ccc(=O)[nH]c5c4)c4sccc4n3)c(OC)c2)CC1	4.4 µM	> 30	24.8 µM	10.1 µM	0.33 µM	> 10 µM	75%	> 20 µM	–
COc1cccc(Nc2nc(Oc3ccc4ccc(=O)[nH]c4c3)c3sccc3n2)c1	–	–	–	–	> 1 µM	> 10 µM	22%	–	–
CN1CCN(c2ccc(Nc3nc(Oc4ccc5ccc(=O)[nH]c5c4)c4sccc4n3)nc2)CC1	> 20 µM	–	–	–	> 1 µM	> 10 µM	32%	> 20 µM	–
CN1CCN(c2ccc(Nc3nc(Oc4ccc5ccc(=O)[nH]c5c4)c4sccc4n3)cc2)CC1	> 50 µM	> 40	5.78 µM	4.15 µM	0.25 µM	> 10 µM	82%	3.46 µM	–
C=CC(=O)Nc1cccc(Oc2nc(Nc3ccc(N4CCN(C)CC4)cc3)nc3ccsc23)c1 [OLMUTINIB]	0.026 µM	–	16.5 µM	9.61 µM	–	–	–	–	–
CN1CCN(Cc2ccc(Nc3nc(Oc4ccc5ccc(=O)[nH]c5c4)c4sccc4n3)cc2)CC1	7.99 µM	> 50	19.3 µM	10.8 µM	0.2 µM	> 10 µM	83%	8.08 µM	–
O=c1ccc2ccc(Oc3nc(Nc4ccc(CN5CCOCC5)cc4)nc4ccsc34)cc2[nH]1	–	–	–	–	–	> 10 µM	60%	–	–
COc1cc(N2CCN(C)CC2)ccc1Nc1nc(Oc2ccc3ccc(=O)[nH]c3c2)c2sccc2n1	6.76 µM	> 30	22.1 µM	6.95 µM	0.33 µM	> 10 µM	74%	> 20 µM	–
C#Cc1cccc(Nc2ncnc3cc(OCCOC)c(OCCOC)cc23)c1 [ERLOTINIB]	7.25 µM	–	> 50 µM	> 20 µM	–	–	–	–	–
CN1CCN(c2nc(Oc3ccc4ccc(=O)[nH]c4c3)c3sccc3n2)CC1	–	–	–	–	> 1 µM	–	inactive	–	–
O=c1ccc2ccc(Oc3nc(Nc4ccc(F)cc4)nc4ccsc34)cc2[nH]1	–	–	–	–	> 1 µM	> 10 µM	8%	–	–
CN1CCN(c2ccc(Nc3nc(Oc4ccc5ccc(=O)[nH]c5c4)c4sccc4n3)cc2F)CC1	8.37 µM	–	> 50 µM	14.5 µM	–	> 10 µM	82%	> 20 µM	–
O=c1ccc2ccc(Oc3nc(Nc4ccc(N5CCS(=O)(=O)CC5)cc4)nc4ccsc34)cc2[nH]1	–	–	–	–	–	> 10 µM	64%	–	–
O=c1ccc2ccc(Oc3nc(Nc4ccc(N5CCC(N6CCCCC6)CC5)c(F)c4)nc4ccsc34)cc2[nH]1	5.6 µM	113	16.7 µM	10.9 µM	0.11 µM	12.4 µM	87%	10.4 µM	Activity [6]: Not Active; Activity [19]: Active
O=c1ccc2ccc(Oc3nc(Nc4ccc(N5CCC(N6CCCCC6)CC5)cc4)nc4ccsc34)cc2[nH]1	–	–	–	–	–	> 10 µM	83%	–	–
